In BindingDB's records for doi:10.1021/acs.jmedchem.1c00256 (University of Strasbourg, 2021):

Assays:
KiSS-1 receptor = KiSS-1 receptor (Homo sapiens, UniProt Q969F8); assay: Displacement of [125I]-Kp-10 from human Kiss1 receptor by TopCount scintillation counting method
[1] = biological target: Prolactin-releasing peptide receptor PRLHR (Homo sapiens) (UniProt P49683); assay: Displacement of [3H]-PrRP-20 from human PrRP receptor expressed in CHO cells by TopCount scintillation counting method
Prolactin-releasing peptide receptor PRLHR (Homo sapiens), sequence (P49683 whole entry, looked up): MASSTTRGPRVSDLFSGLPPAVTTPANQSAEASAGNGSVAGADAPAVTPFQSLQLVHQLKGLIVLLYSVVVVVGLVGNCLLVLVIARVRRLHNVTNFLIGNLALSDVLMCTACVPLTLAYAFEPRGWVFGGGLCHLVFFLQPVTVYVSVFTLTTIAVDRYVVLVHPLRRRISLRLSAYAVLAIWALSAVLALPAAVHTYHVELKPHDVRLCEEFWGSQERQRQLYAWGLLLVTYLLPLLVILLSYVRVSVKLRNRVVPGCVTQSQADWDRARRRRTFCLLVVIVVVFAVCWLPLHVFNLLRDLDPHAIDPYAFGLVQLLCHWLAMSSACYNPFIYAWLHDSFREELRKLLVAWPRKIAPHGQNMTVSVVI

KiSS-1 receptor, sequence (Q969F8 whole entry): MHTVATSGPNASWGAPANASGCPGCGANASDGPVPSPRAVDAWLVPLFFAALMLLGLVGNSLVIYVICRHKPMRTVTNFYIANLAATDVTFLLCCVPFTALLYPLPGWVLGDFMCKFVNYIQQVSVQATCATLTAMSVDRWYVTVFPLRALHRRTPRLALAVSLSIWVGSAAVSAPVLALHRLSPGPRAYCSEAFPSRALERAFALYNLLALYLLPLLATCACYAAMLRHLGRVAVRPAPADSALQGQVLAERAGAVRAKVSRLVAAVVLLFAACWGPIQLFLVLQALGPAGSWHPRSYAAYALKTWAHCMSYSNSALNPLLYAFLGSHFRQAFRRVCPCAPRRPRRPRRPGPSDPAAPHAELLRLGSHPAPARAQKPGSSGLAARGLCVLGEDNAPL

Row | Ki (KiSS-1 receptor) [nM] | Ki [1] [nM] | Compound
1 | 0.062 |  | CC(C)C[C@H](NC(=O)CNC(=O)[C@H](Cc1ccccc1)NC(=O)[C@H](CO)NC(=O)[C@H](CC(N)=O)NC(=O)[C@H](Cc1c[nH]c2ccccc12)NC(=O)[C@H](CC(N)=O)NC(=O)[C@@H](N)Cc1ccc(O)cc1)C(=O)N[C@@H](CCCNC(=N)N)C(=O)N[C@@H](Cc1ccccc1)C(N)=O [Kisspeptin-10]
2 |  | 2.1 | H-TPDINPAWYASRGIRPVGRF-NH2
3 |  | > 50000 | N=C(N)NCCC[C@@H](NC(=O)C=C(c1ccccc1)c1ccccc1)C(=O)N[C@H](Cc1ccccc1)C(N)=O
